# Measured values from ChEMBL document CHEMBL3879899, “Gastrin releasing peptide compounds” (2011).
# The source made the active and inactive calls. The calls are words filed in the database; no cut-off is given here. Where a SMILES comes first, the peptide text is derived from it. The star is where a group is joined. Me2Gly = CN(C)CC(=O)*; Acm = CC(=O)NC*
# Target: T1, Gastrin-releasing peptide receptor (Homo sapiens, UniProt P30550)
# Experiment: Binding affinity to GRP receptor in human colon smooth muscle after 1 hr by autoradiography
# Details: not given
# Target sequence in this assay (P30550 whole entry, looked up): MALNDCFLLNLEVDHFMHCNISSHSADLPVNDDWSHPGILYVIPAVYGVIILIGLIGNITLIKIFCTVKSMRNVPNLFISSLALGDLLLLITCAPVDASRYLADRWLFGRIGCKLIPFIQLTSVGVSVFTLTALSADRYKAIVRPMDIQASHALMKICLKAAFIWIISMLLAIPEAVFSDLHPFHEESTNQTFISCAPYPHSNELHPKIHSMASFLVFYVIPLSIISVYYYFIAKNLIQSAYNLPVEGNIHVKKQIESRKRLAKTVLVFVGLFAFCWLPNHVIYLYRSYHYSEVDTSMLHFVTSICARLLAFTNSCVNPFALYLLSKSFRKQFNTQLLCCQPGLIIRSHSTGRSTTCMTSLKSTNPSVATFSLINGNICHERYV
row,SMILES,Activity
1,CCCCC(NC(=O)[C@H](Cc1ccccc1)NC(=O)[C@H](Cc1cnc[nH]1)NC(=O)CCNC(=O)[C@@H](NC(=O)[C@H](C)NC(=O)[C@H](Cc1c[nH]c2ccccc12)NC(=O)[C@H](CCC(N)=O)NC(=O)C(N)Cc1ccc(O)cc1)C(C)C)C(N)=O (stereo in doubt),Active

# System: not listed separately
# Experiment: Drug efflux in human PC3 cells after 2 hrs by gamma counting method
# Format: ADME, cell-based
# Details: pc-3, 2 h
row,SMILES,Drug transport [%]
1,CSCC[C@H](NC(=O)[C@H](CC(C)C)NC(=O)[C@H](Cc1cnc[nH]1)NC(=O)CNC(=O)[C@@H](NC(=O)[C@H](C)NC(=O)[C@H](Cc1c[nH]c2ccccc12)NC(=O)[C@H](CCC(N)=O)NC(=O)[C@H](CC(N)=O)NC(=O)CNC(=O)[C@H](CC(C)C)NC(=O)[C@H](CCCN=C(N)N)NC(=O)[C@H](CCC(N)=O)NC(=O)[C@@H]1CCC(=O)N1)C(C)C)C(N)=O [BOMBESIN],35

# Target: T1, Gastrin-releasing peptide receptor
# Experiment: Displacement of [125I]-BBN from GRPR in human PC3 cells after 1 hr by compuGamma counting or microplate scintillation counting method
# Format: cell-based, PC-3
# Details: not given
# Target sequence in this assay (P30550 whole entry): as the sequence (P30550 whole entry, looked up) above
row,SMILES,IC50 [nM]
1,CSCC[C@H](NC(=O)[C@H](CC(C)C)NC(=O)[C@H](Cc1cnc[nH]1)NC(=O)CNC(=O)[C@@H](NC(=O)[C@H](C)NC(=O)[C@H](Cc1c[nH]c2ccccc12)NC(=O)[C@H](CCC(N)=O)NC(=O)[C@H](CCCNC(=N)N)NC(=O)[C@H](CCCCNC(=O)CNC(=O)CN1CCN(CC(=O)O)CCN(CC(=O)O)CCN(CC(=O)O)CC1)NC(=O)COCCOCCOCC(=O)N[C@H]1CC[C@]2(C)[C@H]3C[C@H](O)[C@]4(C)[C@@H]([C@H](C)CCC(=O)O)CC[C@H]4[C@@H]3CC[C@]2(C)C1)C(C)C)C(N)=O,> 50
2,CSCC[C@H](NC(=O)[C@H](CC(C)C)NC(=O)[C@H](Cc1cnc[nH]1)NC(=O)CNC(=O)[C@@H](NC(=O)[C@H](C)NC(=O)[C@H](Cc1c[nH]c2ccccc12)NC(=O)[C@H](CCC(N)=O)NC(=O)CN1CN(c2ccccc2)C2(CCN(C(=O)CN3CCN(CC(=O)O)CCN(CC(=O)O)CCN(CC(=O)O)CC3)CC2)C1=O)C(C)C)C(N)=O,> 50
3,CSCC[C@H](NC(=O)[C@H](CC(C)C)NC(=O)[C@H](Cc1cnc[nH]1)NC(=O)CNC(=O)[C@@H](NC(=O)[C@H](C)NC(=O)[C@H](Cc1c[nH]c2ccccc12)NC(=O)[C@H](CCC(N)=O)NC(=O)[C@@H]1Cc2cccc3c2N1C(=O)[C@@H](NC(=O)CN1CCN(CC(=O)O)CCN(CC(=O)O)CCN(CC(=O)O)CC1)CC3)C(C)C)C(N)=O,> 50
4,CSCC[C@H](NC(=O)[C@H](CC(C)C)NC(=O)[C@H](Cc1cnc[nH]1)NC(=O)CNC(=O)[C@@H](NC(=O)[C@H](C)NC(=O)[C@H](Cc1c[nH]c2ccccc12)NC(=O)[C@H](CCC(N)=O)NC(=O)Cn1cnc2ccc(N3CCN(C(=O)CN4CCN(CC(=O)O)CCN(CC(=O)O)CCN(CC(=O)O)CC4)CC3)cc2c1=O)C(C)C)C(N)=O,> 50
5,CSCC[C@H](NC(=O)[C@H](CC(C)C)NC(=O)[C@H](Cc1cnc[nH]1)NC(=O)CNC(=O)[C@@H](NC(=O)[C@H](C)NC(=O)[C@H](Cc1c[nH]c2ccccc12)NC(=O)[C@H](CCC(N)=O)NC(=O)CN1CCN(C(=O)CN2CCN(CC(=O)O)CCN(CC(=O)O)CCN(CC(=O)O)CC2)CC1)C(C)C)C(N)=O,> 50
6,CSCC[C@H](NC(=O)[C@H](CC(C)C)NC(=O)[C@H](Cc1cnc[nH]1)NC(=O)CNC(=O)[C@@H](NC(=O)[C@H](C)NC(=O)[C@H](Cc1c[nH]c2ccccc12)NC(=O)[C@H](CCC(N)=O)NC(=O)C[C@@H]1NC(=O)C2C[C@H](NC(=O)CN3CCN(CC(=O)O)CCN(CC(=O)O)CCN(CC(=O)O)CC3)CN2C1=O)C(C)C)C(N)=O (stereo partly specified),> 50
7,CSCC[C@H](NC(=O)[C@H](CC(C)C)NC(=O)[C@H](Cc1cnc[nH]1)NC(=O)CNC(=O)[C@@H](NC(=O)[C@H](C)NC(=O)[C@H](Cc1c[nH]c2ccccc12)NC(=O)[C@H](CCC(N)=O)NC(=O)[C@H](CCCCN)NC(=O)[C@H](CO)NC(=O)CNC(=O)[C@H](CSCNC(C)=O)NC(=O)[C@H](CO)NC(=O)CN(C)C)C(C)C)C(N)=O (Me2Gly-SC(Acm)GSKQWAVGHLM-NH2),2
8,CSCC[C@H](NC(=O)[C@H](CC(C)C)NC(=O)[C@H](Cc1cnc[nH]1)NC(=O)CNC(=O)[C@@H](NC(=O)[C@H](C)NC(=O)[C@H](Cc1c[nH]c2ccccc12)NC(=O)[C@H](CCC(N)=O)NC(=O)[C@H](CC(N)=O)NC(=O)CNC(=O)[C@H](Cc1ccc(O)cc1)NC(=O)[C@H](CCCNC(=N)N)NC(=O)[C@H](CCC(N)=O)NC(=O)[C@H](CCC(=O)O)NC(=O)[C@H]1CCCN1)C(C)C)C(N)=O,2.2
9,CSCC[C@H](NC(=O)[C@H](CC(C)C)NC(=O)[C@H](Cc1cnc[nH]1)NC(=O)CNC(=O)[C@@H](NC(=O)[C@H](C)NC(=O)[C@@H](N)Cc1c[nH]c2ccccc12)C(C)C)C(N)=O,> 800
10,CSCC[C@H](NC(=O)[C@H](CC(C)C)NC(=O)[C@H](Cc1cnc[nH]1)NC(=O)CNC(=O)[C@@H](NC(=O)[C@H](C)NC(=O)[C@H](Cc1c[nH]c2ccccc12)NC(=O)[C@H](CCC(N)=O)NC(=O)[C@@H]1CSC2CC[C@H](NC(=O)CN3CCN(CC(=O)O)CCN(CC(=O)O)CCN(CC(=O)O)CC3)C(=O)N21)C(C)C)C(N)=O (stereo partly specified),> 50
11,CSCC[C@H](NC(=O)[C@H](CC(C)C)NC(=O)[C@H](Cc1cnc[nH]1)NC(=O)CNC(=O)[C@@H](NC(=O)[C@H](C)NC(=O)[C@H](Cc1c[nH]c2ccccc12)NC(=O)[C@H](CCC(N)=O)NC(=O)[C@H](CCCNC(=N)N)NC(=O)[C@H](CCCCNC(=O)COCCOCCOCC(=O)N[C@H]1CC[C@]2(C)[C@H]3C[C@H](O)[C@]4(C)[C@@H]([C@H](C)CCC(=O)O)CC[C@H]4[C@@H]3CC[C@]2(C)C1)NC(=O)CNC(=O)CN1CCN(CC(=O)O)CCN(CC(=O)O)CCN(CC(=O)O)CC1)C(C)C)C(N)=O,> 50

# Same assay, conditions: pc-3
row,SMILES,IC50 [nM]
1,CSCC[C@H](NC(=O)[C@H](CC(C)C)NC(=O)[C@H](Cc1c[nH]cn1)NC(=O)CNC(=O)[C@@H](NC(=O)[C@H](C)NC(=O)[C@H](Cc1c[nH]c2ccccc12)NC(=O)[C@H](CCC(N)=O)NC(=O)CN1CCCC[C@H](NC(=O)CN2CCN(CC(=O)O)CCN(CC(=O)O)CCN(CC(=O)O)CC2)C1=O)C(C)C)C(N)=O,50

# Target: T2, Neuromedin-B receptor (Rattus norvegicus, UniProt P24053)
# T2 sequence (P24053 whole entry): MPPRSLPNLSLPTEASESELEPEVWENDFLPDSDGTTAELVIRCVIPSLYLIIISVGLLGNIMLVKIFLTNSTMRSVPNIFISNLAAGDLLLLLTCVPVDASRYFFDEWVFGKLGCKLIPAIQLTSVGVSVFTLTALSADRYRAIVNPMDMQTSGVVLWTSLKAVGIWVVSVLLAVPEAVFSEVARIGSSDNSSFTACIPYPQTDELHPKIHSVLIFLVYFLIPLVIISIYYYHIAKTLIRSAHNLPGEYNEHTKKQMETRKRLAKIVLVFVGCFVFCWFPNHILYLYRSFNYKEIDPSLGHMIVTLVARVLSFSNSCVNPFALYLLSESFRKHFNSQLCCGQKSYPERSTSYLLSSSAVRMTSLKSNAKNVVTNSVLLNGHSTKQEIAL
# Experiment: Displacement of [125I]-NMB from NMB receptor in rat C6 cells
# Format: cell-based
# Details: not given
row,SMILES,IC50 [nM]
1,CSCC[C@H](NC(=O)[C@H](CC(C)C)NC(=O)[C@H](Cc1cnc[nH]1)NC(=O)CNC(=O)[C@@H](NC(=O)[C@H](C)NC(=O)[C@H](Cc1c[nH]c2ccccc12)NC(=O)[C@H](CCC(N)=O)NC(=O)CN1CCN(CC(=O)O)CCN(CC(=O)O)CCN(CC(=O)O)CC1)C(C)C)C(N)=O,> 250
2,CSCC[C@H](NC(=O)[C@H](CC(C)C)NC(=O)[C@H](Cc1cnc[nH]1)NC(=O)CNC(=O)[C@@H](NC(=O)[C@H](C)NC(=O)[C@H](Cc1c[nH]c2ccccc12)NC(=O)[C@H](CCC(N)=O)NC(=O)[C@H]1CC[C@H](CNC(=O)[C@H]2CC[C@H](CNC(=O)CN3CCN(CC(=O)O)CCN(CC(=O)O)CCN(CC(=O)O)CC3)CC2)CC1)C(C)C)C(N)=O,0.3
3,CSCC[C@H](NC(=O)[C@H](CC(C)C)NC(=O)[C@H](Cc1cnc[nH]1)NC(=O)CNC(=O)[C@@H](NC(=O)[C@H](C)NC(=O)[C@H](Cc1c[nH]c2ccccc12)NC(=O)[C@H](CCC(N)=O)NC(=O)[C@H](CCC(=O)O)NC(=O)[C@H](CCCCN)NC(=O)CNC(=O)[C@H](CSCNC(C)=O)NC(=O)[C@H](CO)NC(=O)CN(C)C)C(C)C)C(N)=O,60
4,CSCC[C@H](NC(=O)[C@H](CC(C)C)NC(=O)[C@H](Cc1cnc[nH]1)NC(=O)CNC(=O)[C@@H](NC(=O)[C@H](C)NC(=O)[C@H](Cc1c[nH]c2ccccc12)NC(=O)[C@H](CCC(N)=O)NC(=O)[C@H](CC(N)=O)NC(=O)CNC(=O)[C@H](Cc1ccc(O)cc1)NC(=O)[C@H](CCCNC(=N)N)NC(=O)[C@H](CCC(N)=O)NC(=O)[C@H](CCC(=O)O)NC(=O)[C@H]1CCCN1)C(C)C)C(N)=O,3.36
5,CSCC[C@H](NC(=O)[C@H](Cc1ccccc1)NC(=O)[C@H](Cc1c[nH]cn1)NC(=O)CNC(=O)[C@@H](NC(=O)[C@H](C)NC(=O)[C@H](Cc1c[nH]c2ccccc12)NC(=O)[C@H](CC(C)C)NC(=O)c1ccc(NC(=O)CNC(=O)CN2CCN(CC(=O)O)CCN(CC(=O)O)CCN(CC(=O)O)CC2)cc1)C(C)O)C(N)=O (stereo partly specified),0.07 to 0.8
6,CSCC[C@H](NC(=O)[C@H](CC(C)C)NC(=O)[C@H](Cc1cnc[nH]1)NC(=O)CNC(=O)[C@@H](NC(=O)[C@H](C)NC(=O)[C@@H](N)Cc1c[nH]c2ccccc12)C(C)C)C(N)=O,> 800

# System: not listed separately
# Experiment: Drug internalization in human PC3 cells after 40 mins by gamma counting method
# Format: ADME, cell-based
# Details: pc-3, 40 min
row,SMILES,Drug uptake [%]
1,CSCC[C@H](NC(=O)[C@H](CC(C)C)NC(=O)[C@H](Cc1cnc[nH]1)NC(=O)CNC(=O)[C@@H](NC(=O)[C@H](C)NC(=O)[C@H](Cc1c[nH]c2ccccc12)NC(=O)[C@H](CCC(N)=O)NC(=O)[C@H](CC(N)=O)NC(=O)CNC(=O)[C@H](CC(C)C)NC(=O)[C@H](CCCN=C(N)N)NC(=O)[C@H](CCC(N)=O)NC(=O)[C@@H]1CCC(=O)N1)C(C)C)C(N)=O [BOMBESIN],59
